Data: US20220184220A1, “XYLOGLUCAN-CONTAINING PRODRUGS AND METHODS OF MANUFACTURE AND USE THEREOF” (priority 2019, published 2022)
“Also recorded” adds a separate entry of the source.

Columns and labels:
[1] = system: interleukin-12p70 (IL-12p70); assay: Protein markers of inflammation in colonic tissue (Example 7); format: in vivo; settings: infected female mice; compared to uncaged PRED or DEXA
Protocol: (§1) Approval to conduct this project was obtained from the AAFC LeRDC Animal Care Committee (Animal Use Protocol 1911). […] The methods employed were essentially the same as those described in Example 3, except that the Citrobacter rodentium (CR) was administered to incite acute self-limiting colitis in mice prior to colonization with Bacteroides ovatus (BO). […] FIG. 20 provides a schematic illustrating the study design and timelines.
(§2) As in the study described in Example 3, there were gross histopathological differences in the distal colon tissue obtained from mice in the different treatment groups. Histological scoring of inflammation was performed by a board-certified pathologist blinded to treatment. […] Following CR infection, with no treatment, neutrophil infiltration was evident and the histological score was 10. […] Evidence of enhanced amelioration of protein markers of inflammation were also observed. […] IL-12p70 is a pro-inflammatory cytokine involved in cell-mediated immunity. For example, it is known as a T cell-stimulating factor, which can stimulate the growth and function of T cells. Moreover, it stimulates the production of interferon-gamma (IFN-γ) and tumor necrosis factor-alpha (TNF-α) from T cells and natural killer (NK) cells, and reduces IL-4 mediated suppression of IFN-γ.

[2] = system: acute self-limiting colitis in mice; assay: Histological scoring of inflammation, C. rodentium colitis in mice with normal enteric microbiota (Example 7); format: in vivo; settings: for histological score, distal colon: CR+/BO+ mice, prednisolone forms 1 mg/kg, dexamethasone forms 1.5 mg/kg (equivalent), one day following steroid treatment; for efficacy compared with the uncaged drug, histologically: Example 7 conclusions; for colitis in the colon, histopathologically: colitis incited by Citrobacter rodentium, mice colonized by Bacteroides ovatus
Protocol: as §1, §2

[3] = target: Bacteroides ovatus GH5 endo-xyloglucanase (Bacteroides ovatus, UniProt A7LXT7); assay: Hydrolysis of glyco-caged prodrugs by BoGH5A, copper-bicinchoninic acid (BCA) reducing-sugar assay; format: biochemical; settings: sodium citrate buffer, pH 6.5
From the text: DOI:10.1007/978-1-4939-6899-2 1.

[4] = system: IL-1β, IL-6, IL-22, TNF-α; assay: Tissue cytokine detection by ELISA in cecal and colonic homogenates (Example 3); format: in vivo, mice; settings: for decreasing pro-inflammatory cytokines (IL-1β and TNF-α) and increasing IL-22 in intestinal tissues: compared with uncaged drugs
Protocol: Cecal and colonic homogenate for each mouse was prepared using the tissues suspended in an immunoprecipitation buffer at a ratio of 1:5 (wt/vol, adapted from Burgos-Ramos E. et al. 2012. “Adipose tissue promotes a serum cytokine profile related to lower insulin sensitivity after chronic central leptin infusion”. PLoS One Vol 7(10): e46893) with the addition of 1% Protease Inhibitor Cocktail (Sigma Aldrich). Frozen tissue sections were immediately homogenized using a Tissue-Tearor® model 398 homogenizer (Biospec Products) and centrifuged (14 000×g for 30 min at 4° C.). Supernatants were collected and used immediately for cytokine profiling. Cecal and colonic cytokine concentrations were measured for each treatment group by enzyme-linked immunosorbent assay (ELISA). Cytokines included in the analysis were interleukin-1 beta (IL-1β); IL-6; IL-10; IL-22; and tumour necrosis factor alpha (TNF-α). All cytokines were quantified using mouse DuoSet ELISA Development kits according to the manufacturer's protocols (R&D Systems). ELISAs were performed using 96-well high-binding half area microplates (Greiner Bio-One), and the optical density of the reactions were determined at wavelength of 450 nm on a Synergy HT™ multi-detection microplate reader (BioTek Instruments Inc.) with Gen5™ analysis software (BioTek Instruments Inc.).

[5] = system: acute self-limiting colitis in mice; assay: Gross visual observations of the murine abdomen (Example 3); format: in vivo; settings: necropsy after 3 days of steroid gavage
From the text: Under isoflurane anesthesia, mice were terminally bled by cardiac puncture and then humanely euthanized by cervical dislocation. All collected blood was separated into serum that was dedicated for steroid detection and optimization of steroid detection procedures. Following euthanasia, a midline laparotomy was made and gross observations of the abdominal regions were photo-documented. Approximately 1 cm sections of the cecum, and the most proximal and distal portions of the colon were divided for histological examination. Cecal and colonic tissues were flash frozen in liquid nitrogen for future immunological protein quantification. Digesta extracted from the colon was stored at −80° C. for future steroid detection, and fresh feces from the cages were used to enumerate Bacteroides ovatus and Citrobacter rodentium by microbiological techniques on the same day as the necropsy.

[6] = system: acute self-limiting colitis in mice; assay: Histological scoring of inflammation, C. rodentium colitis in germ-free mice colonized with B. ovatus (Example 3); format: in vivo; settings: for Crypt Height / Epithelia Hyperplasia / Epithelial Injury / Fibrosis / Globlet cell / Inflamm / Mitotic Act.: gavage 3 days, prednisolone forms 1 mg/kg/day, dexamethasone forms 0.6 mg/kg/day; for Crypt Height / Epithelia Hyperplasia / Epithelial Injury / Fibrosis / Globlet cell / Inflamm / Mitotic Act. / Total Score: n=2; for Total Score: sum of each scoring category; for acute inflammation in the proximal and distal colon, histopathologically / efficacy compared with the uncaged drug: gnotobiotic mice colonized by B. ovatus; for efficacy compared with the uncaged drug: Example 3 conclusions
[7] = cecal tissue homogenates, compared to the free steroids, n=2

Sequence of Bacteroides ovatus GH5 endo-xyloglucanase (A7LXT7 33-502): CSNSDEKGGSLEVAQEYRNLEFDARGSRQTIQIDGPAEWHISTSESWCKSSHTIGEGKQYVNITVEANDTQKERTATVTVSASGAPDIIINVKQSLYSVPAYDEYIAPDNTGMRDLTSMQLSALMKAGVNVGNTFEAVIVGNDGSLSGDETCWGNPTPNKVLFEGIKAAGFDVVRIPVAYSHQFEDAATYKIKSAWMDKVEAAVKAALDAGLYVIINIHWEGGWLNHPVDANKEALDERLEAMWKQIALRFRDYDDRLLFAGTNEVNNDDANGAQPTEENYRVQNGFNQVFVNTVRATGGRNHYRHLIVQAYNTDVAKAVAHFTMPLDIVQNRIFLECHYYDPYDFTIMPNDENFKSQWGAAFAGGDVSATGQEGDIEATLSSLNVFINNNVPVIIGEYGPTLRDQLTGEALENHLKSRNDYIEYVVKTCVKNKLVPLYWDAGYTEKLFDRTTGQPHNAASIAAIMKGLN

SMILES	histological score, distal colon [2]	hydrolysis of the prodrug (release of the active drug) [3]	Crypt Height ([6]; cecal tissue)	Epithelia Hyperplasia ([6]; cecal tissue)	Epithelial Injury ([6]; cecal tissue)	Fibrosis ([6]; cecal tissue)	Globlet cell ([6]; cecal tissue)	Inflamm ([6]; cecal tissue)	Mitotic Act. ([6]; cecal tissue)	Total Score ([6]; cecal tissue)	Crypt Height ([6]; distal colon)	Epithelia Hyperplasia ([6]; distal colon)	Epithelial Injury ([6]; distal colon)	Fibrosis ([6]; distal colon)	Globlet cell ([6]; distal colon)	Inflamm ([6]; distal colon)	Mitotic Act. ([6]; distal colon)	Total Score ([6]; distal colon)	Crypt Height ([6]; proximal colon)	Epithelia Hyperplasia ([6]; proximal colon)	also measured
C[C@]12C=CC(=O)C=C1CC[C@@H]1[C@@H]2[C@@H](O)C[C@@]2(C)[C@H]1CC[C@]2(O)C(=O)CO[C@@H]1OC(CO)[C@@H](O[C@@H]2OC(CO[C@H]3OC[C@@H](O)C(O)C3O)[C@@H](O[C@@H]3OC(CO[C@H]4OC[C@@H](O)C(O)C4O)[C@@H](O[C@@H]4OC(CO[C@H]5OC[C@@H](O)C(O)C5O)[C@@H](O)C(O)C4O)C(O)C3O)C(O)C2O)C(O)C1O (stereo partly drawn) [XXXG-PRED, XXXG-β-O-prednisolone]	4	demonstrated	2	2	1.5	0.5	0	2.5	1.5	10	1.5	1.5	1	0	0.5	1	1	6.5	2	3	quantities of interleukin-12p70 (IL-12p70) protein in colonic tissue [1]: significantly lower; efficacy compared with the uncaged drug, histologically [2]: greater efficacy than uncaged prednisolone histologically; colitis in the colon, histopathologically [2]: ameliorate colitis; IL-1β concentration in cecal tissue [4, 7]: decreased; TNF-α concentration in cecal tissue [4, 7]: decreased; IL-22 concentration in cecal tissue ([4]; cecal tissue homogenates, n=2): increased; decreasing pro-inflammatory cytokines (IL-1β and TNF-α) and increasing IL-22 in intestinal tissues [4]: more effective than the uncaged drugs; blood present in ceca (gross observation) [5]: more blood present in ceca than dexamethasone treatment; also recorded: more blood in cecal area; caged drugs compared in the distal colon ([6]; distal colon): equal scores; acute inflammation in the proximal and distal colon, histopathologically [6]: ameliorate acute inflammation; efficacy compared with the uncaged drug [6]: greater efficacy than uncaged prednisolone; injury and inflammation intensities, distal colon ([6]; histologic examination): lessened the injury and inflammation intensities; Epithelial Injury ([6]; proximal colon): 2.5; Fibrosis ([6]; proximal colon): 0; Globlet cell ([6]; proximal colon): 0.5; Inflamm ([6]; proximal colon): 2; Mitotic Act. ([6]; proximal colon): 1.5; Total Score ([6]; proximal colon): 11.5
C[C@@H]1C[C@H]2[C@@H]3CCC4=CC(=O)C=C[C@]4(C)[C@@]3(F)[C@@H](O)C[C@]2(C)[C@@]1(O)C(=O)CO[C@@H]1OC(CO)[C@@H](O[C@@H]2OC(CO[C@H]3OC[C@@H](O)C(O)C3O)[C@@H](O[C@@H]3OC(CO[C@H]4OC[C@@H](O)C(O)C4O)[C@@H](O[C@@H]4OC(CO[C@H]5OC[C@@H](O)C(O)C5O)[C@@H](O)C(O)C4O)C(O)C3O)C(O)C2O)C(O)C1O (stereo partly drawn) [XXXG-DEXA, XXXG-β-O-dexamethasone]	2	demonstrated	1	1	1	1.5	0.5	2	1.5	8.5	1.5	1.5	1	0	0	1	1	6	2	1.5	quantities of interleukin-12p70 (IL-12p70) protein in colonic tissue [1]: significantly lower; efficacy compared with the uncaged drug, histologically [2]: greater efficacy than uncaged dexamethasone histologically; colitis in the colon, histopathologically [2]: ameliorate colitis; IL-1β concentration in cecal tissue [4, 7]: decreased; TNF-α concentration in cecal tissue [4, 7]: decreased; decrease of IL-6 concentration in cecal tissue [4, 7]: more effective than XXXG-PRED; decreasing pro-inflammatory cytokines (IL-1β and TNF-α) and increasing IL-22 in intestinal tissues [4]: more effective than the uncaged drugs; cecal and colonic thickening (gross observation) [5]: less cecal and colonic thickening than uncaged dexamethasone; amelioration of colitis in the cecum and proximal colon, caged drugs compared ([6]; colitis incited by Citrobacter rodentium): more effective than XXXG-PRED; caged drugs compared in the distal colon ([6]; distal colon): equal scores; acute inflammation in the proximal and distal colon, histopathologically [6]: ameliorate acute inflammation; efficacy compared with the uncaged drug [6]: greater efficacy than uncaged dexamethasone; injury and inflammation intensities, distal colon ([6]; histologic examination): lessened the injury and inflammation intensities; injury and inflammation intensity, ceca and proximal colon tissues ([6]; histologic examination): less injury and inflammation intensity than the other treatments; Epithelial Injury ([6]; proximal colon): 2; Fibrosis ([6]; proximal colon): 0; Globlet cell ([6]; proximal colon): 0; Inflamm ([6]; proximal colon): 1; Mitotic Act. ([6]; proximal colon): 1.5; Total Score ([6]; proximal colon): 8
COC(=O)c1cc(N)ccc1O[C@@H]1OC(CO)[C@@H](O[C@@H]2OC(CO[C@H]3OC[C@@H](O)C(O)C3O)[C@@H](O[C@@H]3OC(CO[C@H]4OC[C@@H](O)C(O)C4O)[C@@H](O[C@@H]4OC(CO[C@H]5OC[C@@H](O)C(O)C5O)[C@@H](O)C(O)C4O)C(O)C3O)C(O)C2O)C(O)C1O (stereo partly drawn) [XXXG-5ASAME, XXXG-β-O-mesalazineME]	–	demonstrated	–	–	–	–	–	–	–	–	–	–	–	–	–	–	–	–	–	–	–
C[C@@H]1C[C@H]2[C@@H]3CCC4=CC(=O)C=C[C@]4(C)[C@@]3(F)[C@@H](O)C[C@]2(C)[C@@]1(O)C(=O)CO [dexamethasone, reference compound]	17	–	1	1	0.5	0	0	2	1.5	6	2	1.5	1	1	1.5	1.5	1	9.5	3	3	Epithelial Injury ([6]; proximal colon): 2; Fibrosis ([6]; proximal colon): 0; Globlet cell ([6]; proximal colon): 0; Inflamm ([6]; proximal colon): 1.5; Mitotic Act. ([6]; proximal colon): 1.5; Total Score ([6]; proximal colon): 11
